For 1 molecule, solubility results are on record in patent publication US20080255366A1, “Crystalline Trihydrate of Zoledronic Acid” (DR. REDDY'S LABORATORIES LIMITED, priority 2005, published 2008).

This data set can be described thus: solubility of crystalline zoledronic acid trihydrate compared with the monohydrate. The class given is physicochemical. Particulars: relative to zoledronic acid monohydrate; solvent and temperature not stated.

In the case of `O=P(O)(O)C(O)(Cn1ccnc1)P(=O)(O)O` [zoledronic acid trihydrate, (1-Hydroxy-2-imidazol-1-yl-phosphonoethyl) phosphonic acid], the solubility result is on record as “substantially equal to that of the monohydrate”.
